In ChEMBL document CHEMBL3046284, “Synthesis, insecticidal activity, and QSAR of novel nitromethylene neonicotinoids with tetrahydropyridine fixed cis configuration and exo-ring ether modification” (2007):

Columns and labels:
Aphis craccivora [1] = assay: Insecticidal activity against Aphis craccivora (cowpea aphid) assessed as mortality at 500 mg/l measured after 24 hr; type: functional
Aphis craccivora [2] = assay: Insecticidal activity against Aphis craccivora (cowpea aphid) assessed as mortality measured after 24 hr; type: functional

Row | Compound | mortality at 500 µg/mL (Aphis craccivora [1]) [%] | LC50 (Aphis craccivora [2]) [µM]
1 | O=[N+]([O-])C1=C2N(Cc3ccc(Cl)nc3)CCN2C(OC/C=C\c2ccccc2)CC1 (centres undefined) | < 10 | 
2 | CCOCCOC1CCC([N+](=O)[O-])=C2N(Cc3ccc(Cl)nc3)CCN21 (centres undefined) | 10.2 | 
3 | O=[N+]([O-])C1=C2N(Cc3ccc(Cl)nc3)CCN2C(O)CC1 (centres undefined) | > 90 | 188
4 | COC1CCC([N+](=O)[O-])=C2N(Cc3ccc(Cl)nc3)CCN21 (centres undefined) | > 90 | 132
5 | CCOC1CCC([N+](=O)[O-])=C2N(Cc3ccc(Cl)nc3)CCN21 (centres undefined) | > 90 | 96
6 | CCCOC1CCC([N+](=O)[O-])=C2N(Cc3ccc(Cl)nc3)CCN21 (centres undefined) | > 90 | 105
7 | CC(C)OC1CCC([N+](=O)[O-])=C2N(Cc3ccc(Cl)nc3)CCN21 (centres undefined) | > 90 | 260
8 | O=[N+]([O-])C1=C2N(Cc3ccc(Cl)nc3)CCN2C(OCCCl)CC1 (centres undefined) | 44.8 | 
9 | O=[N+]([O-])C1=C2N(Cc3ccc(Cl)nc3)CCN2C(OCC(F)(F)F)CC1 (centres undefined) | 10.3 | 
10 | CCCCOC1CCC([N+](=O)[O-])=C2N(Cc3ccc(Cl)nc3)CCN21 (centres undefined) | 77.7 | 
11 | CCC(C)OC1CCC([N+](=O)[O-])=C2N(Cc3ccc(Cl)nc3)CCN21 (centres undefined) | < 10 | 
12 | CC(C)COC1CCC([N+](=O)[O-])=C2N(Cc3ccc(Cl)nc3)CCN21 (centres undefined) | 76.3 | 
13 | CC(C)(C)OC1CCC([N+](=O)[O-])=C2N(Cc3ccc(Cl)nc3)CCN21 (centres undefined) | 72.8 | 
14 | CCCCCOC1CCC([N+](=O)[O-])=C2N(Cc3ccc(Cl)nc3)CCN21 (centres undefined) | 62.6 | 
15 | CC(C)CCOC1CCC([N+](=O)[O-])=C2N(Cc3ccc(Cl)nc3)CCN21 (centres undefined) | 24.4 | 
16 | O=[N+]([O-])C1=C2N(Cc3ccc(Cl)nc3)CCN2C(OCc2ccccc2)CC1 (centres undefined) | > 90 | 573
17 | O=[N+]([O-])C1=C2N(Cc3ccc(Cl)nc3)CCN2C(OCc2ccc(Cl)nc2)CC1 (centres undefined) | 50 | 1150
18 | C#CCOC1CCC([N+](=O)[O-])=C2N(Cc3ccc(Cl)nc3)CCN21 (centres undefined) | 46.9 | 
19 | CC(C)=CCOC1CCC([N+](=O)[O-])=C2N(Cc3ccc(Cl)nc3)CCN21 (centres undefined) | 15.9 | 
20 | COC1CC(C)C([N+](=O)[O-])=C2N(Cc3ccc(Cl)nc3)CCN21 (centres undefined) | > 90 | 148
21 | CC1CC(O)N2CCN(Cc3ccc(Cl)nc3)C2=C1[N+](=O)[O-] (centres undefined) | > 90 | 97
22 | CCOC1CC(C)C([N+](=O)[O-])=C2N(Cc3ccc(Cl)nc3)CCN21 (centres undefined) | > 90 | 186
23 | O=[N+]([O-])/N=C1\NCCN1Cc1ccc(Cl)nc1 [IMIDACLOPRID] | > 90 | 35
